Reference: patent publication US20100179142A1 (priority 2003, published 2010)

Key:
[1] = system: MMTV-neu tumours; format: in vivo, mice
Method: Following pregnancy, which induces activation of the promoter, MMTV-neu mice spontaneously develop multiple tumours within each mammary gland. […] Control animals were dosed with vehicle (1% polysorbate 80). Due to variability in the growth of spontaneous tumours, dosing commenced at different times relative to the assessment of tumour volume, which was determined twice weekly on all animals using calipers. To simplify the analysis, data within each group were collated in 3 day intervals (e.g. tumour volumes from mice receiving either 2, 3 or 4 doses of compound were pooled and the mean volume plotted against “day 3”). Data is plotted for measurements grouped over 3 day periods ie 2-4, 5-7, 8-10 etc. Statistical analysis was performed on measurements between 20 and 22 days of dosing.

[2] = system: A431 vulval carcinoma xenografts; test: Human A431 vulval carcinoma tumour xenografts in nude mice; settings: p.o. daily, AZD2171 3 mg/kg/day, ZD1839 50 mg/kg/day or both; for Number of tumours regressing after 24 days of treatment (treatment from day 28 to day 52): regressing/total
Method: 5×10^6 A431 tumour cells in 0.1 ml of serum free Dulbecco's Modified Eagle's Medium (DMEM) were injected subcutaneously (s.c.) into the flank of each athymic (nu/nu genotype) mouse. Eleven days after inoculation tumours were excised and dissected to generate cubic tumour fragments of 0.5-1 mm^3, which were implanted into further nude mice for a therapy experiment. Tumour volumes were assessed by bilateral Vernier caliper measurement and, taking length to be the longest diameter across the tumour and width the corresponding perpendicular, calculated using the formula (length×width)×the square root of (length×width)×(π/6). […] Inhibition of tumour growth from the start of treatment was assessed on day 45 (the point at which control animals were removed from the experiment because of tumour burden) by comparison of the differences in tumor volume between control and treated groups. In addition, the number of tumour regressions following 24 days of treatment was ascertained (tumour regression being evident if the tumour volume at day 52 was smaller than the pre-treatment value on day 28).

SMILES	inhibition of growth of established MMTV-neu tumours ([1]; AZD2171 alone 1 or 3 mg/kg/day, orally once-daily, 20-22 days of dosing, P<0.05)	Number of tumours regressing after 24 days of treatment (treatment from day 28 to day 52) [2]	Mean % Inhibition of tumour growth following 17 days of treatment (treatment from day 28 to day 45) ([2]; versus control at day 45)	anti-tumour effect in MMTV-neu mice ([1]; mouse, in vivo)
COc1cc2c(Oc3ccc4[nH]c(C)cc4c3F)ncnc2cc1OCCCN1CCCC1 [AZD2171, 4-(4-fluoro-2-methylindol-5-yloxy)-6-methoxy-7-(3-(pyrrolidin-1-yl)propoxy)quinazoline]	inhibited the growth of established (≧0.4 cm^3) MMTV-neu tumours significantly	2/10	95% (P < 0.001)	
COc1cc2ncnc(Nc3ccc(F)c(Cl)c3)c2cc1OCCCN1CCOCC1 [ZD1839, N-(3-chloro-4-fluorophenyl)-7-methoxy-6-(3-morpholinopropoxy)quinazolin-4-amine, reference compound]		2/10		significant anti-tumour effect
